How the values were obtained:
[1] = Stability of capsinoid containing fatty acid, preserved in hexane at 5° C., purity by HPLC; format: physicochemical
Experimental: For example, dihydrocapsiate was synthesized using a small excess of fatty acid, and dihydrocapsiate obtained by preparatively separating together with the excess fatty acid remaining in about 2 wt % relative to dihydrocapsiate was analyzed by HPLC.
(§1) The HPLC measurement conditions of capsinoid are as follows. HPLC conditions: column: Inertsil C8 3 u μm (diameter 4.0 mm×100 mm) eluent: A mixed solvent of eluents A, B shown below and a buffer was eluted by gradient elution method. […]
(§2) eluent A: CH3CN:buffer=80:20 eluent B: CH3CN:buffer=0:100 […]
(§3) temperature: room temperature
Capsiate obtained in the same manner as in Example 5, which contained 3.2 wt % of fatty acid, was analyzed by HPLC to find the purity of 97.8 area %. This capsiate was preserved in a hexane solvent at 5° C. for 30 days and analyzed by HPLC.
Dihydrocapsiate obtained in the same manner as in Example 15, which contained 2.0 wt % of fatty acid, was analyzed by HPLC to find 99.2 area %. This dihydrocapsiate was preserved in a hexane solvent at 5° C. for 30 days and analyzed by HPLC.

[2] = Stability of vanillyl decanoate in acetonitrile with or without decanoic acid, purity by HPLC; format: physicochemical
Description: When ester compound (3) is separated and purified by column chromatography, fatty acid (1) present in excess in the reaction mixture has an Rf value similar to that of ester compound (3); therefore, the separation and purification of ester compound (3) is associated with difficulty. […] For example, when vanillyl decanoate was synthesized from decanoic acid and vanillyl alcohol, separated and purified from decanoic acid by silica gel column chromatography to give pure vanillyl decanoate, which was dissolved in acetonitrile and analyzed by HPLC. As a result, the purity of vanillyl decanoate was 95.6 area %. However, when the sample was reanalyzed 62 hours later, the purity decreased to 82.0 area %. […] Vanillyl decanoate is considered to have become unstable upon separation from decanoic acid. Therefore, fatty acid (1), difficult to be separated from ester compound (3), is preferably left coexisted rather than being separated, from the aspect of stability of ester compound (3).
For example, when 9.1 wt % of decanoic acid was added, in acetonitrile, to pure vanillyl decanoate separated from decanoic acid, the purity of vanillyl decanoate was 97.6 area % even after 19.5 hours and the purity was maintained.
as §1, §2, §3
Vanillyl decanoate was separately synthesized from vanillyl alcohol and decanoic acid, and its stability was examined. Decanoic acid was separated by silica gel column chromatography, and the purified product was dissolved in acetonitrile and analyzed by […]
HPLC to find 95.6 area %. When the sample was reanalyzed 62 hours later, the purity decreased to 82.0 area %, and vanillyl decanoate was confirmed to have been decomposed.
Decanoic acid was separated by silica gel column chromatography, and the purified product, vanillyl decanoate, was dissolved in acetonitrile and analyzed by HPLC 9 hours later to find 90.4 area %. To the acetonitrile solution of the purified product, vanillyl decanoate, was added 9.1 wt % of decanoic acid, and the mixture was analyzed by HPLC 19.5 hours later to find 97.6 area %, showing increase in the purity as compared to the absence of decanoic acid addition. Similarly, 16.7 wt %, 28.7 wt % and 44.8 wt % of decanoic acid was added to vanillyl decanoate to result in higher purities of 98.1 area %, 98.1 area % and 97.9 area % as compared to the absence of decanoic acid addition.

COc1cc(COC(=O)CCCC/C=C/C(C)C)ccc1O [capsiate]
purity by HPLC ([1]; containing 3.2 wt % of fatty acid, before preservation): 97.8 area % | purity by HPLC ([1]; containing 3.2 wt % of fatty acid, preserved in hexane at 5° C. for 30 days): 97.6 area %

CCCCCCCCCC(=O)OCc1ccc(O)c(OC)c1 [vanillyl decanoate]
purity by HPLC ([2]; acetonitrile solution, 9.1 wt % of decanoic acid added, 19.5 hours later): 97.6 area % | purity by HPLC ([2]; acetonitrile solution, 16.7 wt % of decanoic acid added): 98.1 area % | purity by HPLC ([2]; acetonitrile solution, 28.7 wt % of decanoic acid added): 98.1 area % | purity by HPLC ([2]; acetonitrile solution, 44.8 wt % of decanoic acid added): 97.9 area % | purity by HPLC ([2]; pure product separated from decanoic acid, dissolved in acetonitrile, first analysis): 95.6 area % | purity by HPLC ([2]; pure product separated from decanoic acid, in acetonitrile, reanalyzed 62 hours later): 82.0 area % | purity by HPLC ([2]; purified product without decanoic acid, in acetonitrile, 9 hours later): 90.4 area %

COc1cc(COC(=O)CCCCCCC(C)C)ccc1O [dihydrocapsiate]
purity by HPLC ([1]; containing 2.0 wt % of fatty acid, preserved in hexane at 5° C. for 30 days): 99.3 area % | time stably preserved without decomposition ([1]; with about 2 wt % excess fatty acid, in hexane at 5° C.): at least 30 days

Reference: patent US20100152291A1, “PRODUCTION METHOD OF CAPSINOID BY DEHYDRATING CONDENSATION, STABILIZING METHOD OF CAPSINOID, AND CAPSINOID COMPOSITION” (AJINOMOTO CO., INC., priority 2005, published 2010)
